# Assay results published in BindingDB's records for doi:10.1016/j.bmcl.2018.08.039 (National Institutes of Health, 2018).
# Biological target: Bromodomain-containing protein 4 (Homo sapiens, UniProt O60885)
# Test: Displacement of biotinylated acetylated peptide from recombinant human partial length BRD4 long isoform bromodomain 1/2 (N44 to E460 residues) expressed in Escherichia coli BL21 measured after 1 hr by Bromoscan method
row,Kd [nM],SMILES
1,140,Cc1noc(C)c1-c1ccc2nc(-n3cc(CCO)cn3)nc(NCc3cccc(Cl)c3)c2c1
2,980,Cc1noc(C)c1-c1ccc2nc(Cl)nc(NCc3cccc(Cl)c3)c2c1
3,250,Cc1noc(C)c1-c1ccc2nc(-c3ccc(CO)nc3)nc(NCc3cccc(Cl)c3)c2c1
4,2900,CNc1nc(NCc2cccc(Cl)c2)c2cc(-c3c(C)noc3C)ccc2n1
